This note sets out measurements from patent publication US11845724B2, “USP30 inhibitors and uses thereof” (Vincere Biosciences, Inc., priority 2019, dated 2023).

The structures appear in SMILES notation. Read-outs that look alike come from different tables or passages of the source.

The target in experiment [1] is T1, USP30 (Homo sapiens (Human), UniProt Q70CQ3). Description: Dundee MALDI-TOF mass spectrometry assay (IC50). It is filed as biochemical. As to conditions: USP30 25 ng/μl, K48-linked diubiquitin 5.6 μM, avg, read-out: Dundee IC50 μM (avg in vitro MS assay). In short, it runs like this: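 USP30 (25 ng/μl) preincubated with compound 5 min at RT in Tris/BSA/DTT buffer, then K48-linked diubiquitin (5.6 μM) added for 45 min at RT. Stopped with 2% TFA; cleavage quantified by MALDI-TOF mass spectrometry to give IC50.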

Experiment [2] has as its target T1, USP30. Description: Dundee MALDI-TOF mass spectrometry assay (% DUB activity remaining at 1 μM). The class given is biochemical. As to conditions: % DUB activity remaining at compound concentration of 1 μM; avg; read-out: Dundee % Activity at 1 μM (avg in vitro MS assay). The procedure: Compounds were tested in a MALDI-TOF assay based on the paper by Ritorto et al. (Ritorto et al. Screening of DUB activity and specificity by MALDI-TOF mass spectrometry. Nat. Commun. 5:4763).
USP30 (25 ng/μl) tested against K48-linked diubiquitin (5.6 μM). USP30 was diluted in a buffer containing 40 mM Tris, 0.01% BSA, 1 mM DTT and K48 in 40 mM Tris, 0.01% BSA.
The compounds were pre-incubated with the USP30 for 5 mins at room temp before the K48 dimer addition. The assay mixture was then incubated for 45 mins at room temp. The assay was stopped by the addition of TFA to a final concentration of 2% (v/v).
Acidified samples of the DUB assays were mixed with 0.5 mM 15N-ubiquitin and then with one part of 2% (v/v) TFA and one part of 2,5 DHAP matrix solution (7.6 mg of 2,5 DHAP in […] ethanol and […] of an aqueous 12 mg ml 1 diammonium hydrogen citrate). Then 250 nl of these solutions were spotted onto an MTP AnchorChip 1,536 TF and this is analysed on the Bruker rapifleX MALDI-TOF.
Table 22 presents the Dundee MALDI-TOF values expressed as % DUB activity remaining at a compound concentration of 1 μM.

In experiment [3] the target is recombinant USP30 (amino acids 57-517 of the human sequence) (Homo sapiens (Human), UniProt Q70CQ3). Description: In vitro USP30 biochemical assay (Ubiquitin-Rhodamine).
The mark [4] stands for this setting: read-out: USP30 IC50 μM (avg), Ubiquitin-Rhodamine substrate 25 nM, 1.5 nM recombinant USP30.
The mark [5] stands for this setting: USP30 IC50 μM (avg), Ubiquitin-Rhodamine substrate 25 nM, 1.5 nM recombinant USP30.

recombinant USP30 (amino acids 57-517 of the human sequence), sequence (Q70CQ3 57-517): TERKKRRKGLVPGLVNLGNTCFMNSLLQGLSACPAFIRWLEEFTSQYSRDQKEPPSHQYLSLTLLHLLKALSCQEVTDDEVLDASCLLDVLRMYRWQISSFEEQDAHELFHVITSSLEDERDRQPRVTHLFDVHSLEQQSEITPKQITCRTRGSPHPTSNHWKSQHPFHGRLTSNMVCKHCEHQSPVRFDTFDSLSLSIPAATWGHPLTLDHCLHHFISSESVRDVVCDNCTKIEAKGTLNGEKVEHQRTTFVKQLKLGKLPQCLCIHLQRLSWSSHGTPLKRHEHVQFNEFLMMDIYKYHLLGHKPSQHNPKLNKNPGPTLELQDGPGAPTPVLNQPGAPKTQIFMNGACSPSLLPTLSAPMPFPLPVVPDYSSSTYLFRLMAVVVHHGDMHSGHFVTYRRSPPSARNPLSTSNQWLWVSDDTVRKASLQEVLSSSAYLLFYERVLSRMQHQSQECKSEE
T1 sequence (Q70CQ3 whole entry): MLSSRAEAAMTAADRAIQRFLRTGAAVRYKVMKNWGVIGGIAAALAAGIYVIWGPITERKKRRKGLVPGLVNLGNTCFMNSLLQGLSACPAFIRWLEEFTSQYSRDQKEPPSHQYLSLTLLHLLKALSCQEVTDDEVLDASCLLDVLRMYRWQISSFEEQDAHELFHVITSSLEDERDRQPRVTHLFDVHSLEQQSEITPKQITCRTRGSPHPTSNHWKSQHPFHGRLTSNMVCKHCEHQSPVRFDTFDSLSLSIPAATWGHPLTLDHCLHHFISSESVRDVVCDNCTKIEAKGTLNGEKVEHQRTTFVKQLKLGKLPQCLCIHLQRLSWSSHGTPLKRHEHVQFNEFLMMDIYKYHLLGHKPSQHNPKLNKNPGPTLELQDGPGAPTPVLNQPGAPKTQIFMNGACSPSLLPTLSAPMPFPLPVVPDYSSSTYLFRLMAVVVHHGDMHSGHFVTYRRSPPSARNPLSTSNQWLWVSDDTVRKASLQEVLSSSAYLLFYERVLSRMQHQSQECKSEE

As to `CC(C)(C)NS(=O)(=O)c1ccc(NC(=O)C2(NC(=O)c3ccc(F)cc3)CC2c2ccccc2)cc1` (racemic) [Compound I-83, racemic-N-((E)-1-(4-(N-tert-butylsulfamoyl)phenylcarbamoyl)-2-phenylcyclopropyl)-4-fluorobenzamide], the IC50 at USP30 [1] is greater than 1 µM. Moreover, on USP30 [2], the activity at 1 µM is greater than 75%.
Consider `CC(C)(C)NS(=O)(=O)c1ccc(N2Cc3ccccc3CC(NC(=O)c3ccc(F)cc3)C2=O)cc1` (stereo not drawn) [Compound I-21, N-(2-(4-(N-tert-butylsulfamoyl)phenyl)-3-oxo-2,3,4,5-tetrahydro-1H-benzo[c]azepin-4-yl)-4-fluorobenzamide], for which the activity at 1 µM on USP30 [2] is greater than 75%. In experiment [3] (setting [4]), the IC50 is greater than 10 µM.
For the compound `CCNS(=O)(=O)c1ccc(NC(=O)[C@H](Cc2ccccc2)N(CC)C(=O)c2ccc(F)cc2)cc1` [Compound I-52, (S)-N-ethyl-N-(1-(4-(N-ethylsulfamoyl)phenylamino)-1-oxo-3-phenylpropan-2-yl)-4-fluorobenzamide], the activity at 1 µM on USP30 [2] is greater than 75%. For the same compound, the IC50 in experiment [3] (setting [4]) was greater than 10 µM.
`CC(C)(C)NS(=O)(=O)c1ccc(NC(=O)C2Cc3ccccc3N2C(=O)c2ccc(F)cc2)cc1` (stereo not drawn) [Compound I-53, N-(4-(N-tert-butylsulfamoyl)phenyl)-1-(4-fluorobenzoyl)indoline-2-carboxamide]: the activity at 1 µM at USP30 [2] is greater than 75%. In addition, the half-maximal inhibitory concentration (IC50) in experiment [3] (setting [4]) was greater than 10 µM.
The like results for `CC(C)(C)NS(=O)(=O)c1ccc(NC(=O)C2Cc3ncccc3CN2C(=O)c2ccc(F)cc2)cc1` (stereo not drawn) [Compound I-60, N-(4-(N-tert-butylsulfamoyl)phenyl)-6-(4-fluorobenzoyl)-5,6,7,8-tetrahydro-1,6-naphthyridine-7-carboxamide] were, in that order, greater than 75% and greater than 10 µM.
Take `CC(C)(C)NS(=O)(=O)c1ccc(NC(=O)[C@H](Cc2ccccc2)NC(=O)OC2CCOCC2)cc1` [Compound I-43, (S)-tetrahydro-2H-pyran-4-yl 1-(4-(N-tert-butylsulfamoyl)phenylamino)-1-oxo-3-phenylpropan-2-ylcarbamate]: at USP30 [2], the activity at 1 µM fell in the range of 50 to 75%. Moreover, the half-maximal inhibitory concentration (IC50) in experiment [3] (setting [5]) fell in the range of 1 to 10 µM.
Regarding `CC(C)(C)NS(=O)(=O)c1ccc(N2C(=O)C(NC(=O)c3ccc(F)cc3)Cc3ccccc32)cc1` (stereo not drawn) [Compound I-20, N-(1-(4-(N-tert-butylsulfamoyl)phenyl)-2-oxo-1,2,3,4-tetrahydroquinolin-3-yl)-4-fluorobenzamide], the activity at 1 µM on USP30 [2] is greater than 75%. Besides, the concentration for half-maximal inhibition (IC50) in experiment [3] (setting [4]) is greater than 10 µM.
The like results for `CC(C)(C)NS(=O)(=O)c1ccc(NC(=O)C2Cc3cnccc3N2C(=O)c2ccc(F)cc2)cc1` (stereo not drawn) [Compound I-55, N-(4-(N-tert-butylsulfamoyl)phenyl)-1-(4-fluorobenzoyl)-2,3-dihydro-1H-pyrrolo[3,2-c]pyridine-2-carboxamide] were, in that order, greater than 75% and greater than 10 µM.
In the case of `O=C(N[C@@H](Cc1ccccc1)C(=O)Nc1ccc(S(=O)(=O)NC2COC2)nc1)c1ccc(F)cc1` [Compound I-106, (S)-4-fluoro-N-(1-(6-(N-oxetan-3-ylsulfamoyl)pyridin-3-ylamino)-1-oxo-3-phenylpropan-2-yl)benzamide], the half-maximal inhibitory concentration (IC50) (on USP30 [1]; in experiment [3] (setting [5])) was 0.05 to 1 µM each time.
With `CN(C)CCNS(=O)(=O)c1ccc(NC(=O)[C@H](Cc2ccccc2)NC(=O)c2ccc(F)cc2)cc1` [Compound I-133, (S)-N-(1-(4-(N-(2-(dimethylamino)ethyl)sulfamoyl)phenylamino)-1-oxo-3-phenylpropan-2-yl)-4-fluorobenzamide], the figures for the IC50 (on USP30 [1]; in experiment [3] (setting [5])) were 1 to 10 µM and 0.05 to 1 µM, respectively.
For the compound `COc1cc(NC(=O)[C@H](Cc2ccccc2)NC(=O)c2ccc(F)cc2)ccc1S(=O)(=O)NCCO` [Compound I-152, (S)-4-fluoro-N-(1-(4-(N-(2-hydroxyethyl)sulfamoyl)-3-methoxyphenylamino)-1-oxo-3-phenylpropan-2-yl)benzamide], the figures for the IC50 (at USP30 [1]; in experiment [3] (setting [5])) were less than 0.05 µM and 0.05 to 1 µM, respectively.
Turning to `CN(C(=O)c1ccc(F)cc1)[C@@H](Cc1cccnc1)C(=O)Nc1ccc(S(=O)(=O)NC2COC2)cc1` [Compound I-89, (S)-4-fluoro-N-methyl-N-(1-(4-(N-oxetan-3-ylsulfamoyl)phenylamino)-1-oxo-3-(pyridin-3-yl)propan-2-yl)benzamide], the IC50 at USP30 [1] is 1 to 10 µM; in experiment [3] (setting [4]), greater than 10 µM.
Regarding `CN1CCC(NS(=O)(=O)c2ccc(NC(=O)[C@H](Cc3ccccc3)NC(=O)c3ccc(F)cc3)cc2)CC1` [Compound I-33, (S)-4-fluoro-N-(1-(4-(N-(1-methylpiperidin-4-yl)sulfamoyl)phenylamino)-1-oxo-3-phenylpropan-2-yl)benzamide], the IC50 (on USP30 [1]; in experiment [3] (setting [5])) was 0.05 to 1 µM in each case.
On to `Cc1cc(NC(=O)[C@H](Cc2ccccc2)NC(=O)c2ccc(F)cc2)ccc1S(=O)(=O)NC(C)(C)C` [Compound I-96, (S)-N-(1-(4-(N-tert-butylsulfamoyl)-3-methylphenylamino)-1-oxo-3-phenylpropan-2-yl)-4-fluorobenzamide], for which the results for the IC50 (at USP30 [1]; in experiment [3] (setting [4])) were 0.05 to 1 µM and less than 0.05 µM, respectively.
Turning to `O=C(NC1(C(=O)Nc2ccc(S(=O)(=O)NC3COC3)cc2)Cc2ccccc2C1)c1ccc(F)cc1` [Compound I-101, 2-(4-fluorobenzamido)-N-(4-(N-oxetan-3-ylsulfamoyl)phenyl)-2,3-dihydro-1H-indene-2-carboxamide], the IC50 (on USP30 [1]; in experiment [3] (setting [4])) was greater than 10 µM each time.
As to `O=C(N[C@@H](Cc1ccccc1)C(=O)Nc1ccc(S(=O)(=O)NC2CCC2)cc1)c1ccccn1` [Compound I-78, (S)-N-(1-(4-(N-cyclobutylsulfamoyl)phenylamino)-1-oxo-3-phenylpropan-2-yl) picolinamide], the IC50 at USP30 [1] lay within 0.05 to 1 µM; in experiment [3] (setting [5]), 1 to 10 µM.
`CN(C(=O)c1ccc(F)cc1)[C@@H](Cc1ccccc1)C(=O)Nc1ccc(S(=O)(=O)NC2COC2)cc1` [Compound I-70, (S)-4-fluoro-N-methyl-N-(1-(4-(N-oxetan-3-ylsulfamoyl)phenylamino)-1-oxo-3-phenylpropan-2-yl)benzamide]: the IC50 (on USP30 [1]; in experiment [3] (setting [5])) was 1 to 10 µM throughout.
For the compound `Cc1cc(NC(=O)[C@H](Cc2ccccc2)NC(=O)c2ccc(F)cn2)ccc1S(=O)(=O)NC12CC(C1)C2` [Compound I-98, (S)-N-(1-(4-(N-bicyclo[1.1.1]pentan-1-ylsulfamoyl)-3-methylphenylamino)-1-oxo-3-phenylpropan-2-yl)-5-fluoropicolinamide], the IC50 (at USP30 [1]; in experiment [3] (setting [5])) was 0.05 to 1 µM in each case.
`O=C(N[C@@H](Cc1ccccc1)C(=O)Nc1ccc(S(=O)(=O)NC23CC(C2)C3)cc1)c1ccc(F)cn1` [Compound I-73, (S)-N-(1-(4-(N-bicyclo[1.1.1]pentan-1-ylsulfamoyl)phenylamino)-1-oxo-3-phenylpropan-2-yl)-5-fluoropicolinamide]: the figures for the IC50 (on USP30 [1]; in experiment [3] (setting [5])) were less than 0.05 µM and 0.05 to 1 µM, respectively.
Regarding `CC(C)(CN1CCOCC1)NS(=O)(=O)c1ccc(NC(=O)[C@H](Cc2ccccc2)NC(=O)c2ccc(F)cc2)cc1` [Compound I-162, (S)-4-fluoro-N-(1-(4-(N-(2-methyl-1-morpholinopropan-2-yl)sulfamoyl)phenylamino)-1-oxo-3-phenylpropan-2-yl)benzamide], the IC50 (on USP30 [1]; in experiment [3] (setting [4])) was less than 0.05 µM in each case.
`O=C(N[C@@H](Cc1ccccn1)C(=O)Nc1ccc(S(=O)(=O)NC2CCC2)cc1)c1ccc(F)cc1` [Compound I-142, (S)-N-(1-(4-(N-cyclobutylsulfamoyl)phenylamino)-1-oxo-3-(pyridin-2-yl)propan-2-yl)-4-fluorobenzamide]: the figures for the 50% inhibitory concentration (IC50) (on USP30 [1]; in experiment [3] (setting [5])) were less than 0.05 µM and 0.05 to 1 µM, respectively.
In the case of `CC(C)(C)NS(=O)(=O)c1ccc(NC(=O)C2Cc3cccnc3CN2C(=O)c2ccc(F)cc2)cc1` (stereo not drawn) [Compound I-59, N-(4-(N-tert-butylsulfamoyl)phenyl)-7-(4-fluorobenzoyl)-5,6,7,8-tetrahydro-1,7-naphthyridine-6-carboxamide], at USP30 [2], the activity at 1 µM is greater than 75%. Moreover, in experiment [3] (setting [5]), the IC50 was 1 to 10 µM.
Turning to `COc1cc(NC(=O)[C@H](Cc2ccccc2)NC(=O)c2ccc(F)cc2)ccc1S(=O)(=O)NC1COC1` [Compound I-147, (S)-4-fluoro-N-(1-(3-methoxy-4-(N-oxetan-3-ylsulfamoyl)phenylamino)-1-oxo-3-phenylpropan-2-yl)benzamide], the IC50 at USP30 [1] was less than 0.05 µM; in experiment [3] (setting [5]) it was 0.05 to 1 µM.
On to `CCNS(=O)(=O)c1ccc(NC(=O)[C@H](Cc2ccccn2)NC(=O)c2ccc(F)cc2)cc1` [Compound I-139, (S)-N-(1-(4-(N-ethylsulfamoyl)phenylamino)-1-oxo-3-(pyridin-2-yl)propan-2-yl)-4-fluorobenzamide], for which the IC50 (on USP30 [1]; in experiment [3] (setting [5])) was 0.05 to 1 µM each time.
